Consider two molecules from US20200030278A1, “PHARMACEUTICAL COMPOSITIONS OF METAP-2 INHIBITORS” (Zafgen, Inc., priority 2017, published 2020).

Series [1] is described as follows: Pharmacokinetics after intravenous infusion in humans. It is filed as in vivo. Conditions: Human, 30-minute IV Infusion, 2.0 mg (0.9 mg/m^2).
In series [2] the test system is plasma proteins. Kind of series: Protein binding in rat plasma (dialysis). The format is in vitro ADME. Conditions: plasma; rat, summary over concentrations; read-out: bound to plasma proteins.
For series [3], the system named is plasma proteins. Kind of series: Protein binding in human plasma (dialysis). The format is in vitro ADME. Conditions: plasma; human, summary over concentrations; read-out: bound to plasma proteins.
In series [4] the test system is plasma proteins. In words: Protein binding in dog plasma (dialysis). The format is in vitro ADME. Conditions: plasma; dog, summary over concentrations; read-out: bound to plasma proteins.

In general, AUC(0-inf) refers to the area under the concentration-time curve extrapolated to infinity. The clearance is the volume of plasma or blood freed of the substance per unit of time. High values mean efficient removal, low ones inefficient removal. For orientation: half-life means the time in which the quantity being followed falls by half. For `CO[C@@H]1[C@H](OC(=O)/C=C/c2ccc(OCCN(C)C)cc2)CC[C@]2(CO2)[C@H]1[C@@]1(C)O[C@@H]1CC=C(C)C` [beloranib, reference compound], the kel in series [1] was 0.120 ± 0.070 h⁻¹. In series [1] (in vivo), the AUC(0-inf) was 5.82 ± 2.46 ng·h/mL, the clearance is 64.5 mL/min/kg and the half-life is 7.06 ± 2.66 h. Moreover, the Vd in series [1] (in vivo, read-out: Vdss) came out at 25.4 ± 19.2 L/kg.

With `CO[C@@H]1[C@H](OC(=O)N2CC(CCN3CCOCC3)C2)CC[C@]2(CO2)[C@H]1[C@@]1(C)O[C@@H]1CC=C(C)C` [Compound A], the fraction unbound at 4 h in the series on plasma proteins [2] and with plasma proteins [4] was 0.3 to 0.6 each time. For the same molecule, the fraction unbound with plasma proteins [3] lay within 0.65 to 0.75.
